Laboratory results taken from patent publication US20110301087A1, “CRF1 RECEPTOR COMPOUNDS” (priority 2008, published 2011).
Where a SMILES comes first, the peptide text is derived from it. [ ]: non-standard residue; d: D form. The star is where a group is joined. Palmitoyl = CCCCCCCCCCCCCCCC(=O)*; Nle = CCCC[C@H](N)C(=O)O

Target: T1, CRF1 (Homo sapiens, UniProt P34998)
T1 construct: endogenously expresses functional CRF1; endogenous in cells; host or cells: Y-79 human retinoblastoma cells
T1 sequence (P34998 24-415): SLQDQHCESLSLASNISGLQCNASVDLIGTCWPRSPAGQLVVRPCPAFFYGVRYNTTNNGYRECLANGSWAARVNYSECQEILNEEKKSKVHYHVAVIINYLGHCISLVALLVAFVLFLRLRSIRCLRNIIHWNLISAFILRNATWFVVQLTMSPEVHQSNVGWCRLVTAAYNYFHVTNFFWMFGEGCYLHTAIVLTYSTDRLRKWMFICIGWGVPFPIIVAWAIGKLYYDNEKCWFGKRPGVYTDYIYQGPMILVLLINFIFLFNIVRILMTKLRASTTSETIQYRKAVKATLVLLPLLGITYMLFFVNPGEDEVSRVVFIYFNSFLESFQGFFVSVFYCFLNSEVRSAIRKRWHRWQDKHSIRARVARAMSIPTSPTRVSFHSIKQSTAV
Test: CRF1 assessment of cAMP (HTRF cAMP assay) in Y-79 cells, antagonist mode
Type: cell-based
Details: Y79 cells; for IC50: CRF1 cAMP screening, against agonist; for inhibition at 0.3 µM: 300 nM pepducin against agonist dose response, read-out: % Inhibition (± SD)
Excerpt: HTRF (homogeneous time resolved fluorescence) is a technology developed by Cisbio Bioassays based on TR-FRET (time-resolved fluorescence resonance energy transfer). Cisbio Bioassays has developed a wide selection of HTRF-based assays compatible with whole cells, thereby enabling functional assays run under more physiological conditions. cAMP kits are based on a competitive immunoassay using cryptate-labeled anti-cAMP antibody and d2-labeled cAMP. This assay allows the measurement of increase in intracellular cAMP upon Gs-coupled receptor activation as well as decrease in forskolin stimulated increase in cAMP upon Gi-coupled receptor activation. Cells expressing CRF1 endogenously or via transfection can be used to assess compound pharmacology using cAMP assays as a means to measure the activity of adenylyl cyclase resulting from CRF1 activation or inhibition.
An example of the use of the cAMP assay can be assessing CRF activation of CRF1 in Y-79, a human retinoblastoma cell line which endogenously expresses functional CRF1. Y-79 cells were seeded into 96-well half area black plates at 30K/well in Hank's balanced salt solution with 50 mM HEPES, 0.1% BSA, 200 uM IBMX. Compounds to be tested for agonist activity were added to cells, incubated for 30 minutes at 37 degrees C. and assayed for cAMP concentration. To test for antagonist activity, compounds to be tested were added to cells, followed by the addition of agonist at an experimentally determined optimal concentration, generally the EC80. Plates were incubated for 30 minutes at 37 degrees C. and assayed for cAMP. To determine concentration of cAMP in each well, d2-labeled cAMP in Conjugate/Lysis buffer was added to wells. This addition lysed the cells and input a known concentration of labeled cAMP. This was followed by the addition of anti-cAMP antibody conjugated to cryptate. FRET occurs when cryptate-labeled antibody binds to d2-labeled cAMP. Therefore, the specific signal is inversely proportional to the concentration of cAMP in the sample. Conversion of signal to concentration of cAMP in the well was accomplished by comparing the FRET signal of sample to a standard curve generated using known concentrations of cAMP.

CCCCCCCCCCCCCCCC(=O)NCC(=O)N[C@@H](CO)C(=O)N[C@@H](CCCNC(=N)N)C(=O)N[C@@H](CC(C)C)C(=O)N[C@@H](CCCNC(=N)N)C(=O)N[C@@H](CCCCN)C(=O)N[C@@H](Cc1c[nH]c2ccccc12)C(=O)N[C@@H](CCSC)C(=O)N[C@@H](Cc1ccccc1)C(=O)N[C@H](C(N)=O)[C@@H](C)CC [Compound 28] (Palmitoyl-GSRLRKWMFI-NH2)
IC50: 1 to 5 µM
inhibition at 0.3 µM: 52 ± 5%

CCCCCCCCCCCCCCCC(=O)N[C@H](C(=O)N[C@@H](CC(=O)O)C(=O)N[C@@H](CCCNC(=N)N)C(=O)N[C@@H](CC(C)C)C(=O)N[C@@H](CCCNC(=N)N)C(=O)N[C@@H](CCCCN)C(=O)N[C@@H](Cc1c[nH]c2ccccc12)C(=O)N[C@@H](CCCC)C(=O)N[C@@H](Cc1ccccc1)C(=O)N[C@H](C(N)=O)[C@@H](C)CC)[C@@H](C)O [Compound 54] (Palmitoyl-TDRLRKW[Nle]FI-NH2)
inhibition at 0.3 µM: 55 ± 7%

CCCCCCCCCCCCCCCC(=O)NCC(=O)N[C@@H](CO)C(=O)N[C@H](C(=O)N[C@@H](CC(=O)O)C(=O)N[C@@H](CCCNC(=N)N)C(=O)N[C@@H](CC(C)C)C(=O)N[C@@H](CCCNC(=N)N)C(=O)N[C@@H](CCCCN)C(=O)N[C@@H](C)C(=O)N[C@@H](CCCC)C(=O)N[C@@H](Cc1ccccc1)C(=O)N[C@H](C(N)=O)[C@@H](C)CC)[C@@H](C)O [Compound 53] (Palmitoyl-GSTDRLRKA[Nle]FI-NH2)
inhibition at 0.3 µM: 50 ± 14%

CCCCCCCCCCCCCCCC(=O)N[C@@H](CO)C(=O)N[C@H](C(=O)N[C@@H](CC(=O)O)C(=O)N[C@@H](CCCNC(=N)N)C(=O)N[C@@H](CC(C)C)C(=O)N[C@@H](CCCNC(=N)N)C(=O)N[C@@H](CCCCN)C(=O)N[C@@H](Cc1c[nH]c2ccccc12)C(=O)N[C@@H](CCSC)C(=O)N[C@@H](Cc1ccccc1)C(=O)N[C@H](C(N)=O)[C@@H](C)CC)[C@@H](C)O [Compound 33] (Palmitoyl-STDRLRKWMFI-NH2)
IC50: 1 to 5 µM
inhibition at 0.3 µM: 36 ± 9%

CCCCCCCCCCCCCCCC(=O)NCC(=O)N[C@@H](CO)C(=O)NCC(=O)N[C@@H](CCCNC(=N)N)C(=O)N[C@@H](CC(C)C)C(=O)N[C@@H](CCCNC(=N)N)C(=O)N[C@@H](CCCCN)C(=O)N[C@@H](Cc1c[nH]c2ccccc12)C(=O)N[C@@H](CCSC)C(=O)N[C@@H](Cc1ccccc1)C(=O)N[C@H](C(N)=O)[C@@H](C)CC [Compound 26] (Palmitoyl-GSGRLRKWMFI-NH2)
IC50: 1 to 5 µM
inhibition at 0.3 µM: 63%

CCCCCCCCCCCCCCCC(=O)NCC(=O)N[C@@H](CO)C(=O)N[C@H](C(=O)N[C@@H](CC(=O)O)C(=O)N[C@@H](CCCNC(=N)N)C(=O)N[C@@H](CC(C)C)C(=O)N[C@@H](CCCNC(=N)N)C(=O)N[C@@H](CCCCN)C(=O)N[C@@H](Cc1c[nH]c2ccccc12)C(=O)N[C@@H](CCSC)C(=O)N[C@@H](C)C(=O)N[C@H](C(N)=O)[C@@H](C)CC)[C@@H](C)O [Compound 38] (Palmitoyl-GSTDRLRKWMAI-NH2)
IC50: 1 to 5 µM
inhibition at 0.3 µM: 60 ± 8%

CCCCCCCCCCCCCCCC(=O)N[C@@H](C)C(=O)N[C@@H](CC(=O)O)C(=O)N[C@@H](CCCNC(=N)N)C(=O)N[C@@H](CC(C)C)C(=O)N[C@@H](CCCNC(=N)N)C(=O)N[C@@H](CCCCN)C(=O)N[C@@H](Cc1c[nH]c2ccccc12)C(=O)N[C@@H](CCSC)C(=O)N[C@@H](Cc1ccccc1)C(=O)N[C@H](C(N)=O)[C@@H](C)CC [Compound 44] (Palmitoyl-ADRLRKWMFI-NH2)
IC50: > 10 µM
inhibition at 0.3 µM: 42%

CCCCCCCCCCCCCCCC(=O)N[C@@H](CCCNC(=N)N)C(=O)N[C@@H](CC(C)C)C(=O)N[C@@H](CCCNC(=N)N)C(=O)N[C@@H](CO)C(=O)N[C@H](C(=O)N[C@@H](CCCNC(=N)N)C(=O)N[C@@H](CO)C(=O)N[C@@H](CC(C)C)C(=O)N[C@@H](CCCNC(=N)N)C(=O)N[C@@H](CC(N)=O)C(=O)N[C@H](C(=O)N[C@H](C(=O)N[C@@H](Cc1c[nH]cn1)C(=O)N[C@@H](Cc1c[nH]c2ccccc12)C(=O)N[C@@H](CC(N)=O)C(N)=O)[C@@H](C)CC)[C@@H](C)CC)[C@@H](C)CC [Compound 5] (Palmitoyl-RLRSIRSLRNIIHWN-NH2)
IC50: 1 to 5 µM
inhibition at 0.3 µM: 54 ± 13%

CCCCCCCCCCCCCCCC(=O)N[C@@H](C)C(=O)N[C@@H](CO)C(=O)N[C@H](C(=O)N[C@H](C(=O)N[C@@H](CO)C(=O)N[C@@H](CCC(=O)O)C(=O)N[C@H](C(=O)N[C@H](C(=O)N[C@@H](CCC(N)=O)C(=O)N[C@@H](Cc1ccc(O)cc1)C(=O)N[C@@H](CCCNC(=N)N)C(=O)N[C@@H](CCCCN)C(=O)N[C@@H](C)C(=O)N[C@H](C(=O)N[C@@H](CCCCN)C(=O)N[C@@H](CO)C(N)=O)C(C)C)[C@@H](C)CC)[C@@H](C)O)[C@@H](C)O)[C@@H](C)O [Compound 62] (Palmitoyl-ASTTSETIQYRKAVKS-NH2)
IC50: 1 to 5 µM
inhibition at 0.3 µM: 50%

CCCCCCCCCCCCCCCC(=O)N[C@H](C(=O)N[C@@H](CC(=O)O)C(=O)N[C@@H](CCCNC(=N)N)C(=O)N[C@@H](CC(C)C)C(=O)N[C@@H](CCCNC(=N)N)C(=O)N[C@@H](CCCCN)C(=O)N[C@@H](C)C(=O)N[C@@H](CCSC)C(=O)N[C@@H](Cc1ccccc1)C(=O)N[C@H](C(N)=O)[C@@H](C)CC)[C@@H](C)O [Compound 50] (Palmitoyl-TDRLRKAMFI-NH2)
IC50: > 10 µM
inhibition at 0.3 µM: 58%

CCCCCCCCCCCCCCCC(=O)N[C@H](C(=O)N[C@@H](CC(=O)O)C(=O)N[C@@H](CCCNC(=N)N)C(=O)N[C@@H](CC(C)C)C(=O)N[C@@H](CCCNC(=N)N)C(=O)N[C@@H](CCCCN)C(=O)N[C@@H](Cc1c[nH]c2ccccc12)C(=O)N[C@@H](CCSC)C(=O)N[C@@H](C)C(=O)N[C@H](C(N)=O)[C@@H](C)CC)[C@@H](C)O [Compound 43] (Palmitoyl-TDRLRKWMAI-NH2)
IC50: > 10 µM
inhibition at 0.3 µM: 48%

CCCCCCCCCCCCCCCC(=O)N[C@@H](CC(=O)O)C(=O)N[C@@H](CCCNC(=N)N)C(=O)N[C@@H](CC(C)C)C(=O)N[C@@H](CCCNC(=N)N)C(=O)N[C@@H](CCCCN)C(=O)N[C@@H](Cc1c[nH]c2ccccc12)C(=O)N[C@@H](CCSC)C(=O)N[C@@H](C)C(=O)N[C@H](C(N)=O)[C@@H](C)CC [Compound 42] (Palmitoyl-DRLRKWMAI-NH2)
IC50: 5 to 10 µM
inhibition at 0.3 µM: 65%

CCCCCCCCCCCCCCCC(=O)NCC(=O)N[C@@H](CO)C(=O)N[C@H](C(=O)N[C@@H](CC(=O)O)C(=O)N[C@@H](CCCNC(=N)N)C(=O)N[C@@H](CC(C)C)C(=O)N[C@@H](CCCNC(=N)N)C(=O)N[C@@H](CCCCN)C(=O)N[C@@H](Cc1c[nH]c2ccccc12)C(=O)N[C@@H](CCSC)C(=O)N[C@@H](Cc1ccccc1)C(=O)N[C@H](C(N)=O)[C@@H](C)CC)[C@@H](C)O [Compound 29, Pal-GSTDRLRKWMFI-amide] (Palmitoyl-GSTDRLRKWMFI-NH2)
IC50: 0.501 to 1 µM
inhibition at 0.3 µM: 53 ± 14%

CCCCCCCCCCCCCCCC(=O)N[C@H](C(=O)N[C@@H](CC(=O)O)C(=O)N[C@@H](CCCNC(=N)N)C(=O)N[C@@H](C)C(=O)N[C@@H](CCCNC(=N)N)C(=O)N[C@@H](CCCCN)C(=O)N[C@@H](Cc1c[nH]c2ccccc12)C(=O)N[C@@H](CCSC)C(=O)N[C@@H](Cc1ccccc1)C(=O)N[C@H](C(N)=O)[C@@H](C)CC)[C@@H](C)O [Compound 47] (Palmitoyl-TDRARKWMFI-NH2)
IC50: 1 to 5 µM
inhibition at 0.3 µM: 62%

CCCCCCCCCCCCCCCC(=O)N[C@@H](Cc1ccc(O)cc1)C(=O)N[C@@H](CO)C(=O)N[C@H](C(=O)N[C@@H](CC(=O)O)C(=O)N[C@@H](CCCNC(=N)N)C(=O)N[C@@H](CC(C)C)C(=O)N[C@@H](CCCNC(=N)N)C(=O)N[C@@H](CCCCN)C(=O)N[C@@H](Cc1c[nH]c2ccccc12)C(=O)N[C@@H](CCSC)C(=O)N[C@@H](Cc1ccccc1)C(=O)N[C@H](C(N)=O)[C@@H](C)CC)[C@@H](C)O [Compound 34] (Palmitoyl-YSTDRLRKWMFI-NH2)
IC50: 0.501 to 1 µM
inhibition at 0.3 µM: 21 ± 5%

CCCCCCCCCCCCCCCC(=O)N[C@@H](CC(=O)O)C(=O)N[C@@H](CCCNC(=N)N)C(=O)N[C@@H](CC(C)C)C(=O)N[C@@H](CCCNC(=N)N)C(=O)N[C@@H](CCCCN)C(=O)N[C@@H](Cc1c[nH]c2ccccc12)C(=O)N[C@@H](CCSC)C(=O)N[C@@H](Cc1ccccc1)C(=O)N[C@H](C(N)=O)[C@@H](C)CC [Compound 31] (Palmitoyl-DRLRKWMFI-NH2)
IC50: 1 to 5 µM
inhibition at 0.3 µM: 30 ± 17%
